Like-named read-outs stand apart in the source and are kept apart here. Bridge positions count the residues as written; N and C are the ends. Square brackets hold non-standard residues; d marks the D form. Peptide text beside a SMILES is read from it. * marks the point of attachment. Piperazin2one(3S-Bu,6R-CO) = CCCC[C@@H]1NC[C@H](C(=O)*)NC1=O; X2 = N=C(N)NCCC[C@@H]1C(=O)N[C@@H](C(N)=O)CN1*; X1 = N=C(N)NCCC[C@H]1C(=O)N[C@@H](C(N)=O)CN1*; Heptanoyl = CCCCCCC(=O)*; Nle = CCCC[C@H](N)C(=O)O; Orn = NCCC[C@H](N)C(=O)O
Tests used:
[1] = target: T1, NEP (neutral endopeptidase) (Homo sapiens, UniProt P08473); assay: hNEP resistance assay (digestion by neutral endopeptidase); type: in vitro ADME; details: pH 7.4
T1 construct: purchased R&D Systems, Minneapolis, Minn; 1182-ZN
Method: NEP resistance of various constructs of the invention was evaluated using the following experimental procedure. All constructs were diluted in 0.1 M Tris-HCL buffer (pH 7.4) to 100 μM. 40 μL of diluted constructs were added to each tube and all tubes were kept on ice. 40 μL of diluted NEP, either human recombinant NEP (R&D Systems, Minneapolis, Minn., catalogue #1182-ZN) at 8 ng/μL or mouse NEP (R&D Systems, catalog #1126-ZN) at 2.5 ng/μL, was added to each tube. The tubes were mixed gently and spun. […] At the end of the incubation time, the reaction was stopped by adding 5 μL of 10% TFA. […] The extent to which NEP was active against the constructs was then analyzed by HPLC and/or LC/MS. Data analysis included determining the percent of remaining starting material, i.e., undigested peptide construct, and the percent and sequence of each proteolytic fragment.

[2] = rat, in vivo, iv
[3] = rat, in vivo, sc
[4] = human, isolated enzyme neprilysin
[5] = human recombinant NEP (neutral endopeptidase), incubation with human recombinant NEP at 37° C., 1 h, read-out: hNEP % of Starting Material 1 h
[6] = human recombinant NEP (neutral endopeptidase), incubation with human recombinant NEP at 37° C., 2 h, read-out: hNEP % of Starting Material 2 h

T1 sequence (P08473 52-750 limits assumed): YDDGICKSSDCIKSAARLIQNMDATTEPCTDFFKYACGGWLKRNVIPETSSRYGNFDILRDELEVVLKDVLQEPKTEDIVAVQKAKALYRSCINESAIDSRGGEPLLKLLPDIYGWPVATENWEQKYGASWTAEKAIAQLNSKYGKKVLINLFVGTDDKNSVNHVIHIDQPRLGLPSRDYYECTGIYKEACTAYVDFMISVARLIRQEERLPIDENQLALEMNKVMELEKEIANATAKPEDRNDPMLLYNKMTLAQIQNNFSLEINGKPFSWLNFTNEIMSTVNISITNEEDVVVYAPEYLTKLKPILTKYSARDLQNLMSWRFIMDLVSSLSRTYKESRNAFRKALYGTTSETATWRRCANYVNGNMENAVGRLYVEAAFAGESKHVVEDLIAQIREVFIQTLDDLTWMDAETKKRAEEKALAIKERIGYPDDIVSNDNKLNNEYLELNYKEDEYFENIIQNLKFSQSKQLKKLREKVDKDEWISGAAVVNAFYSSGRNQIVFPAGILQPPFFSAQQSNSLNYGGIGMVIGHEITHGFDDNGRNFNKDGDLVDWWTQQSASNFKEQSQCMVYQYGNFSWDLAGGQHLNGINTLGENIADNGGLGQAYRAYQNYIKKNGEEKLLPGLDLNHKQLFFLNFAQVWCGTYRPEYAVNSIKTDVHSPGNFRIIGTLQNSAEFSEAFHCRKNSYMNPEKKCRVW

Row | remaining at 1 h, 50 µM [1, 4] | remaining at 2 h, 50 µM [1, 4] | clearance [2] | AUC ([2]; 0.3 mg/kg) | Vd ([2]; 0.3 mg/kg) | clearance ([2]; 0.3 mg/kg) | half-life ([2]; 0.3 mg/kg) | AUC ([2]; 2 mg/kg) | Vd ([2]; 2 mg/kg) | clearance ([2]; 2 mg/kg) | half-life ([2]; 2 mg/kg) | SMILES | further results
1 | 91% | 82% | 55 mL/min/kg | 0.061 µM·h | 0.4 L/kg | 43 mL/min/kg | 12 min | 0.263 µM·h | 0.7 L/kg | 72 mL/min/kg | 12 min | CCCC[C@@H]1NC[C@H](C(=O)N[C@H]2CSSC[C@@H](C(=O)N[C@@H](Cc3ccc(O)cc3)C(=O)N3C[C@H](C(N)=O)NC(=O)[C@@H]3CCCNC(=N)N)NC(=O)[C@H](CO)NC(=O)[C@H]([C@@H](C)CC)NC(=O)[C@H](CCCNC(=N)N)NC(=O)[C@H](CC(=O)O)NC(=O)[C@H](CCCC)NC(=O)[C@H](CCCNC(=N)N)NC(=O)CNC(=O)CNC(=O)[C@H](Cc3ccccc3)NC(=O)[C@H](Cc3c[nH]cn3)NC2=O)NC1=O [1-18] ({Piperazin2one(3S-Bu,6R-CO)}-CHFGGR[Nle]DRISCY-X1; disulfide 1-12) | AUC ([3]; 1 mg/kg): 0.04 µM·h; Cmax ([3]; 1 mg/kg): 85 nM; Tmax ([3]; 1 mg/kg): 6 min; half-life ([3]; 1 mg/kg): 12 min; AUC ([3]; 5 mg/kg): 0.255 µM·h; Cmax ([3]; 5 mg/kg): 131 nM; Tmax ([3]; 5 mg/kg): 12 min; half-life ([3]; 5 mg/kg): 96 min
2 | 93% | 86% | 15 mL/min/kg |  |  |  |  | 1.54 µM·h | 0.4 L/kg | 15 mL/min/kg | 30 min | CCCC[C@@H]1NC[C@H](C(=O)N[C@H]2CSSC[C@@H](C(=O)N[C@@H](Cc3ccc(O)cc3)C(=O)N3C[C@H](C(N)=O)NC(=O)[C@@H]3CCCNC(=N)N)NC(=O)[C@H](CO)NC(=O)[C@H]([C@@H](C)CC)NC(=O)[C@H](CCCNC(=N)N)NC(=O)[C@@H](CC(=O)O)NC(=O)[C@H](CCCC)NC(=O)[C@H](CCCNC(=N)N)NC(=O)CNC(=O)CNC(=O)[C@H](Cc3ccccc3)NC(=O)[C@H](Cc3c[nH]cn3)NC2=O)NC1=O [1-44] ({Piperazin2one(3S-Bu,6R-CO)}-CHFGGR[Nle][dD]RISCY-X1; disulfide 1-12) | 
3 | 87% | 78% | 40 mL/min/kg |  |  |  |  |  |  |  |  | CCCC[C@@H]1NC[C@H](C(=O)N[C@H]2CSSC[C@@H](C(=O)N[C@H](Cc3ccc(O)cc3)C(=O)N3C[C@H](C(N)=O)NC(=O)[C@@H]3CCCNC(=N)N)NC(=O)[C@H](CO)NC(=O)[C@H]([C@@H](C)CC)NC(=O)[C@H](CCCNC(=N)N)NC(=O)[C@H](CC(=O)O)NC(=O)[C@H](CCCC)NC(=O)[C@H](CCCNC(=N)N)NC(=O)CNC(=O)CNC(=O)[C@H](Cc3ccccc3)NC(=O)[C@H](Cc3c[nH]cn3)NC2=O)NC1=O [1-53] ({Piperazin2one(3S-Bu,6R-CO)}-CHFGGR[Nle]DRISC[dY]-X1; disulfide 1-12) | 
4 | 96% | 92% | 10 mL/min/kg |  |  |  |  |  |  |  |  | CCCC[C@@H]1NC[C@H](C(=O)N[C@H]2CSSC[C@@H](C(=O)N[C@@H](Cc3ccc(O)cc3)C(=O)N3C[C@H](C(N)=O)NC(=O)[C@H]3CCCNC(=N)N)NC(=O)[C@H](CO)NC(=O)[C@H]([C@@H](C)CC)NC(=O)[C@@H](CCCNC(=N)N)NC(=O)[C@H](CC(=O)O)NC(=O)[C@H](CCCC)NC(=O)[C@@H](CCCNC(=N)N)NC(=O)CNC(=O)CNC(=O)[C@H](Cc3ccccc3)NC(=O)[C@H](Cc3c[nH]cn3)NC2=O)NC1=O [1-118] ({Piperazin2one(3S-Bu,6R-CO)}-CHFGG[dR][Nle]D[dR]ISCY-X2; disulfide 1-12) | 
5 | 67% | 44% | 203 mL/min/kg | 0.033 µM·h | 5.8 L/kg | 546 mL/min/kg | 18 min | 0.067 µM·h | 4.6 L/kg | 290 mL/min/kg | 18 min | CCCCCCC(=O)N[C@H]1CSSC[C@@H](C(=O)N[C@@H](Cc2ccc(O)cc2)C(=O)N2C[C@H](C(N)=O)NC(=O)[C@@H]2CCCNC(=N)N)NC(=O)[C@H](CO)NC(=O)[C@H]([C@@H](C)CC)NC(=O)[C@H](CCCNC(=N)N)NC(=O)[C@H](CC(=O)O)NC(=O)[C@H](CCCC)NC(=O)[C@H](CCCNC(=N)N)NC(=O)CNC(=O)CNC(=O)[C@H](Cc2ccccc2)NC(=O)[C@H](Cc2c[nH]cn2)NC1=O [1-63] (Heptanoyl-CHFGGR[Nle]DRISCY-X1; disulfide 1-12) | AUC ([3]; 1 mg/kg): 0.007 µM·h; Cmax ([3]; 1 mg/kg): 26 nM; Tmax ([3]; 1 mg/kg): 6 min; half-life ([3]; 1 mg/kg): 12 min
6 |  |  | 21 mL/min/kg | 0.116 µM·h | 0.2 L/kg | 15 mL/min/kg | 12 min | 0.828 µM·h | 0.3 L/kg | 21 mL/min/kg | 18 min | CCCC[C@@H]1NC[C@H](C(=O)N[C@H]2CSSC[C@@H](C(=O)N[C@@H](Cc3ccc(O)cc3)C(=O)N3C[C@H](C(N)=O)NC(=O)[C@@H]3CCCNC(=N)N)NC(=O)[C@H](CO)NC(=O)[C@H]([C@@H](C)CC)NC(=O)[C@H](CCCN)NC(=O)[C@H](CC(=O)O)NC(=O)[C@H](CCCC)NC(=O)[C@H](CCCNC(=N)N)NC(=O)CNC(=O)CNC(=O)[C@H](Cc3ccccc3)NC(=O)[C@H](Cc3c[nH]cn3)NC2=O)NC1=O [1-55] ({Piperazin2one(3S-Bu,6R-CO)}-CHFGGR[Nle]D[Orn]ISCY-X1; disulfide 1-12) | remaining at 1 h, 50 µM [1, 5]: 83%; remaining at 2 h, 50 µM [1, 6]: 70%; AUC ([3]; 5 mg/kg): 0.232 µM·h; Cmax ([3]; 5 mg/kg): 250 nM; Tmax ([3]; 5 mg/kg): 18 min; half-life ([3]; 5 mg/kg): 30 min
7 |  |  | 66 mL/min/kg |  |  |  |  | 0.277 µM·h | 1 L/kg | 66 mL/min/kg | 12 min | CCCC[C@@H]1NC[C@H](C(=O)N[C@H]2CSSC[C@@H](C(=O)N[C@@H](Cc3ccc(O)cc3)C(=O)N3C[C@H](C(N)=O)NC(=O)[C@@H]3CCCNC(=N)N)NC(=O)[C@H](CO)NC(=O)[C@H]([C@@H](C)CC)NC(=O)[C@H](CCCNC(=N)N)NC(=O)[C@H](CC(=O)O)NC(=O)[C@H](CCCC)NC(=O)[C@H](CCCN)NC(=O)CNC(=O)CNC(=O)[C@H](Cc3ccccc3)NC(=O)[C@H](Cc3c[nH]cn3)NC2=O)NC1=O [1-54] ({Piperazin2one(3S-Bu,6R-CO)}-CHFGG[Orn][Nle]DRISCY-X1; disulfide 1-12) | remaining at 1 h, 50 µM [1, 5]: 85%; remaining at 2 h, 50 µM [1, 6]: 82%

— patent US8580747B2, “Cyclic natriuretic peptide constructs” (Palatin Technologies, Inc., priority 2006, dated 2013)
